From paper PMC7075946 (Frontiers in Immunology, 2020)
Entries after “also recorded” stand apart in the source; their conditions may differ.

What was measured:
[1] = system: A/Victoria/210/2009 (H3N2); experiment: Splenocyte restimulation, influenza-specific T cell responses (flow cytometry, MSD); assay type: in vivo, BALB/c mice; settings: for influenza-specific T cell response (cytokine production of restimulated splenocytes): 5 days post-secondary vaccination, A/Vic restimulation, vs A/Vic alone
human PBMCs [2] = experiment: Human PBMC secreted cytokines (Luminex); assay type: cell-based; settings: for pro-inflammatory and Th1/Th17 biasing cytokines, concentrations and frequencies: secreted and intracellular cytokine data
Method: (§1) Human blood was obtained from healthy adult donors through a University of Montana Institutional Review Board (IRB)-approved protocol. PBMCs were separated from whole blood via density gradient separation using Histopaque 1,077 (Sigma). For PBMC-based assays, cells were resuspended at the desired cell concentration in complete media (RPMI1640+10% FBS+antibiotics). Cells were treated with the indicated compound concentrations and stimulated for 6–24 h depending on the assay as indicated in the figure legends and assays outlined below.
For Luminex assays, supernatants were harvested from treated human PBMCs following 18–24 h of incubation. Supernatants were analyzed using Luminex multiplex panel for analytes IL-1β, IL-12p70, IL-23, IL-6, TNFα, IFNα, and IL-4 (R&D Systems) per the manufacturer's instructions. Multiplex analysis was performed using a Luminex 200 instrument (Luminex Corporation) and analyzed with StarStation2.3 software.
Figure 6 Lipidated imidazoquinolines elicit a Th1/Th17-inducing innate cytokine profile from human PBMCs. PBMCs from 6 healthy, adult blood donors were stimulated with indicated concentrations of TLR7/8 agonists with and without a TLR4 agonist. Secreted cytokines were measured after 24 h via Luminex assay. Supernanant concentrations of (A) IL-12p70, (B) IL-23, (C) IL-1β, and (D) IL-4 were determined. […] Note that for each cytokine measured, the y-axis scale used for the left and right plots is identical for ease of comparison.

human PBMCs [3] = experiment: Human PBMC intracellular cytokine staining (flow cytometry); assay type: cell-based; settings: for frequency of mDC producing IL-12p40 / frequency of classical monocytes producing IL-12p40: 1 h plus 5 h GolgiPlug
Method: as §1
For flow cytometry analysis of innate cytokines, PBMCs were stimulated with indicated concentration of compound for 1 h followed by 5 h incubation with GolgiPlug (BD, 1 μL/mL) at 37°C. Post-stimulation, cells were harvested and surface stained with viability dye, and monoclonal antibodies targeting CD3 AF700 (Tonbo Bioscience, UCHT1), CD19 AF700 (Tonbo Bioscience, HIB19), CD56 AF700 (Biolegend, 5.1H11), HLA-DR BV785 (Biolegend, L243), CD14 APC-Cy7 (Biolegend, 63D3), CD16 PE-Dazzle594 (Biolegend, 3G8), CD11c BV421 (Biolegend, 3.9), and CD123 APC (Biolegend, 6H6). Following fixation and permeabilization with BD Cytofix/Cytoperm buffers, cells were stained with monoclonal antibodies targeting the intracellular cytokines IL-12p40 PE (a shared IL-12 and IL-23 subunit, Biolegend, C11.5), IL-6 FITC (Biolegend MQ2-13A5), IL-4 BV605 (Biolegend, MP4-25D2), and LAP (TGF-β) PE Cy7 [latency-associated peptide ([55]), Biolegend TW4-2F8]. Data were collected using an LSRII flow cytometer (BD) and analyzed using FlowJo 10.0 software (TreeStar).
Figure 7 Lipidated imidazoquinolines elicit T cell polarizing cytokines primarily from APCs. PBMCs from 6 healthy, adult blood donors were stimulated with 2 μM indicated TLR7/8, TLR4, or combination TLR4 + TLR7/8 agonists. After 1 h, brefeldin A (GolgiPlug) was added and cells were incubated for a further 5 h. Cells were then harvested and stained with surface antibodies for phenotyping, fixed and permeablized and stained with antibodies to detect intracellular cytokines. (A) Frequency of IL-12/IL-23+ cells, (B) frequency of IL-6+ cells, (C) frequency of TGFβ (LAP)+ cells, and (D) frequency of IL-4+ cells.

human TLR8 = molecular target: T1, human TLR8 (Homo sapiens, UniProt Q9NR97); experiment: cell-based
T1 sequence (Q9NR97 27-1041): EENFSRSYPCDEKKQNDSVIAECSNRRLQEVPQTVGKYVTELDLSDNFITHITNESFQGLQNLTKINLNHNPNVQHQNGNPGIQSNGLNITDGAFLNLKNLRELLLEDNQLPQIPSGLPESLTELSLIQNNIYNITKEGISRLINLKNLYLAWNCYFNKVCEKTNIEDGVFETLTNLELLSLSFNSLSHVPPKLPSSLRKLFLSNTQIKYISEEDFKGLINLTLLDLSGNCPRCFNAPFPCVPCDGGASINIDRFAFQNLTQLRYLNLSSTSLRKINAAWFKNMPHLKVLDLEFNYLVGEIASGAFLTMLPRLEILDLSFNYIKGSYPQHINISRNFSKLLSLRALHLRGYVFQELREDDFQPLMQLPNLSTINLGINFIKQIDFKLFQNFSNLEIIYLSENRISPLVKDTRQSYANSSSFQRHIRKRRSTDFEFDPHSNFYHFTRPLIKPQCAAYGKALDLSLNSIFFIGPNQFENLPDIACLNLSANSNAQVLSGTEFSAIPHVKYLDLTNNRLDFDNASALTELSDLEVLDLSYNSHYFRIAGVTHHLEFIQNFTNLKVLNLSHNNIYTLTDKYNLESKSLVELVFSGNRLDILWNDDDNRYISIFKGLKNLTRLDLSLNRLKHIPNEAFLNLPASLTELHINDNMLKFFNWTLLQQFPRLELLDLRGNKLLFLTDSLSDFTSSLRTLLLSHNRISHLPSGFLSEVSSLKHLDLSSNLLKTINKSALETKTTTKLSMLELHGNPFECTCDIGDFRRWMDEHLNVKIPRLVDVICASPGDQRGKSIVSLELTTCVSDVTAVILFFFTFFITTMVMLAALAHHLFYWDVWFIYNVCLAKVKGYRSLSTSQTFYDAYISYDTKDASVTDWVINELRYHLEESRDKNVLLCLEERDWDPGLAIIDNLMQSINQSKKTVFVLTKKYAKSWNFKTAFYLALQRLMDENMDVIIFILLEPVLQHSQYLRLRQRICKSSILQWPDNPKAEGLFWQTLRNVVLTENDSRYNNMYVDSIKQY

[4] = system: A/Victoria/210/2009 (H3N2); experiment: ELISA of influenza-specific serum antibody titers in mice given adjuvanted A/Vic vaccine

SMILES	influenza-specific T cell response (cytokine production of restimulated splenocytes) [1]	IFNα secretion (human PBMCs [2]; 24 h)	IL-12p70 production (human PBMCs [2]; with CRX-601 added at a 1:10 ratio, 24 h)	frequency of mDC producing IL-12p40 (human PBMCs [3]; 2 μM)	frequency of mDC and classical monocytes expressing TGFβ (LAP) (human PBMCs [3]; compound alone, 2 μM)	frequency of mDC and classical monocytes expressing TGFβ (LAP) (human PBMCs [3]; in combination with CRX-601, 2 μM)	EC50 (human TLR8) [µM]	average fold change of IgG2a vs IgG1 titers over A/Vic alone ([4]; 14 days post-primary (14dp1))	IL-17 response compared to A/Vic antigen alone ([1]; challenge study, 10 μg/mouse alone, 5dp2)	IL-1β production (human PBMCs [2]; compound alone, 24 h)	IL-12p70 production (human PBMCs [2]; compound alone, 24 h)	IL-23 production (human PBMCs [2]; compound alone, 24 h)	pro-inflammatory and Th1/Th17 biasing cytokines, concentrations and frequencies (human PBMCs [2])	frequency of classical monocytes producing IL-12p40 (human PBMCs [3]; 2 μM)	average fold change of IgG2a vs IgG1 titers over A/Vic alone ([4]; mouse, in vivo)	frequencies of CD8 IFNγ+ cells ([1]; high dose 10 μg/mouse, with or without a TLR4 agonist, 5dp2)
CCCCc1nc2c(N)nc3ccccc3c2n1CCO [UM-3001]	did not exhibit any significantly increased cytokine production	not	boosted IL-12p70 production	approximately 20%	low frequencies	low frequencies	0.53	approximately equal increase in both IgG2a and IgG1 titers								
CCCCCCCCCCCCCCCC(=O)OC[C@H](COCCOCCOCCOP(=O)(O)OCCn1c(CCCC)nc2c(N)nc3ccccc3c21)OC(=O)CCCCCCCCCCCCCCC [UM-3003]	primarily a Th1 influenza-specific response	secreted; also recorded: most potent inducer of IFNα		Lower frequencies			52.5		no longer elicited a significantly higher IL-17 response	low concentrations	low levels	low concentrations	low concentrations and low frequencies	Lower frequencies	IgG2a titers were increased more than IgG1 titers	
CCCCCCCCCCCCCCCC(=O)OC[C@H](COCCOCCOCCOCCOCCOCCOP(=O)(O)OCCn1c(CCCC)nc2c(N)nc3ccccc3c21)OC(=O)CCCCCCCCCCCCCCC [UM-3004]	primarily a Th1 influenza-specific response	secreted		Lower frequencies			24.6	IgG2a titers were increased more than IgG1 titers						Lower frequencies		
CCCCCCCC/C=C\CCCCCCCC(=O)OC[C@H](COP(=O)(O)OCCc1ccc2c(c1)nc(N)c1nc(CCCC)n(CCO)c12)OC(=O)CCCCCCC/C=C\CCCCCCCC [UM-3005]	primarily a Th1 influenza-specific response	secreted		approximately 20%			0.27						highest concentrations and frequencies	approximately 20%	IgG2a titers were increased more than IgG1 titers	significantly increased
